Results: patent publication US4409233A, “Highly concentrated preparations of dopa compounds” (Sankyo Company, Limited, priority 1978, dated 1983)
Values after ≈ are worked out from the molar mass of the structure shown.

Key:
[1] = cited from earlier work
[2] = Solubility of dopa compounds in water; type: physicochemical; conditions: 50 mg of dopa

SMILES | solubility in water [1] [µg/mL] | solubility in water (in words) [1] | volume of water necessary to dissolve the minimal dose of dopa [2] [mL]
NC(Cc1ccc(O)c(O)c1)C(=O)O (stereo not drawn) [dopa, β-(3,4-dihydroxyphenyl)-α-alanine] | 2500 (≈ 12.7 mM) | poor solubility in water | 20
C[C@](N)(Cc1ccc(O)c(O)c1)C(=O)O [methyldopa, L-3-(3,4-dihydroxyphenyl)-2-methylalanine] | – | poor solubility in water | –
